Reference: US11521704B2, “Method for probing at least one binding site of a protein” (priority 2017, dated 2022)
Where two headings read alike, the source gives them in different places.

How the values were obtained:
[1] = system: NL4-3 wild-type HIV-1 protease; assay: Cell-based assay (Swanstrom laboratory); conditions: Human immunodeficiency virus 1, NL43
Text: (§1) A diverse panel of 15 HIV-1 protease variants was chosen with a broad range of sequence substitutions containing single site mutants and more heavily mutated multi-drug resistant proteases (MDR-PRs). Both the SF-2 and NL4-3 wild-type (WT) proteases were used as controls for the variants in the panel. These two WT proteins shared 95% identity, varying at positions 7, 14, 41, 63 and 64 (FIG. 2). […] Table 1 is a listing of EC50 values for clinically-derived HIV-1 protease variants determined by cell-based assays at the Swanstrom laboratory at UNC-Chapel Hill, and fold changes relative to wild type NL4-3. The EC50 value for variant ATA21 could not be determined.

[2] = system: clinically-derived HIV-1 protease variant VSL23; assay: Cell-based assay (Swanstrom laboratory); conditions: Human immunodeficiency virus 1
[3] = system: clinically-derived HIV-1 protease variant VEG23; assay: Cell-based assay (Swanstrom laboratory); conditions: Human immunodeficiency virus 1
[4] = system: clinically-derived HIV-1 protease variant SLK19; assay: Cell-based assay (Swanstrom laboratory); conditions: Human immunodeficiency virus 1
[5] = system: SF-2 wild-type HIV-1 protease; assay: Cell-based replicon assay; conditions: Human immunodeficiency virus 1, cell-based replicon assays
Text: as §1

[6] = system: clinically-derived HIV-1 protease variant KY26; assay: Cell-based assay (Swanstrom laboratory); conditions: Human immunodeficiency virus 1

SMILES: CC(C)CN(C[C@@H](O)[C@H](Cc1ccccc1)NC(=O)O[C@H]1CO[C@H]2OCC[C@H]21)S(=O)(=O)c1ccc(N)cc1 [DRV, Darunavir]
- EC50 ([1]; NL4-3, cell-based replicon assays, read-out: EC50): 4 nM
- EC50 ([1]; NL4-3 wild type, read-out: EC50 In): 3.98 nM
- EC50 [2]: 320 nM
- EC50 [3]: 7800 nM
- EC50 [4]: 32.5 nM
- EC50 [5]: 4 nM
- EC50 [6]: 1160 nM
